Experimental data published in patent US20100249064A1, “METHODS AND COMPOSITIONS FOR TREATING DISEASES AND CONDITIONS INVOLVING HIGHER MOLECULAR WEIGHT HYALURONAN” (University of Chicago, priority 2007, published 2010).

Columns and labels:
[1] = test system: Human pulmonary artery EC; experiment: Transendothelial electrical resistance (TER) of HA-treated EC monolayers, Example 1; format: cell-based; details: 5 mM MβCD or 10 μg/ml anti-CD44 (IM-7) antibody, 100 nM High or Low MW HA
Description: Measurement of TransEC Electrical Resistance (TER)—EC were grown to confluence in polycarbonate wells containing evaporated gold microelectrodes. TER measurements were performed using an electrical cell-substrate impedance sensing system (Applied Biophysics, Troy, N.Y.) as described (Garcia et al., 2001). TER values from each microelectrode were pooled at discrete time points and plotted versus time as the mean±S.E.

[2] = test system: Human pulmonary artery EC; experiment: Cortical actin (phalloidin) staining and quantitation; format: cell-based; details: MβCD one hour prior to 100 nM High MW HA for 30 min
Description: Immunofluorescence Microscopy and Cortical Actin Quantitation—Polymerized actin rearrangement was assessed first with Texas Red-conjugated phalloidin (Invitrogen (Molecular Probes), Eugene, Oreg.) and then analyzed using a Nikon Eclipse TE 300 microscope as described (Garcia et al., 2001). ImageQuant™ software (Amersham Biosciences Corp. (Piscataway, N.J.)) was used to analyze the computer recorded .tiff images. A standardized average grey value (SAGV) was generated for total phalloidin staining versus cortical phalloidin staining for each cell (Singleton et al., 2005). The following equation was used to calculate percent cortical actin staining: ((cortical actin SAGV×area) divided by (total actin SAGV×area))×100. At least ten cells per sample were analyzed. Experiments were performed in triplicate.
Immunofluorescence Microscopy. EC were serum-starved for one hour prior to the addition of 100 nM high MW HA. EC were then fixed in 4% paraformaldehyde, permeablized with ethanol and incubated with specific protein or interest primary antibody for 30 min followed by either FITC or Texas Red-conjugated secondary (Invitrogen (Molecular Probes), Eugene, Oreg.) and analyzed using a Nikon Eclipse TE 300 microscope as described (Garcia et. al., 2001).

Human pulmonary EC [3] = experiment: TER, Example 5; format: cell-based; details: MβCD or IM-7 antibody
Description: Measurement of TransEC Electrical Resistance (TER). EC were grown to confluence in polycarbonate wells containing evaporated gold microelectrodes, and TER measurements performed using an electrical cell-substrate impedance sensing system (Applied Biophysics, Troy, N.Y.) as previously described (Garcia et al., 2001). TER values from each microelectrode were pooled at discrete time points and plotted versus time as the mean±S.E.

Rac1 = Rac1 activation assay, HGF; format: cell-based, human; details: 5 mM MβCD prior to 25 ng/ml HGF
Description: Rac1 Activation Assay—Rac1 activity assays were performed as described (Ren et al., 1999) in human lung EC.

[4] = test system: Human pulmonary microvascular EC (HPMVEC); experiment: EC electrical resistance (TER), HGF; format: cell-based; details: 5 mM MβCD 30 min prior to 25 ng/ml HGF
Description: Measurement of EC Electrical Resistance—EC were grown to confluence in polycarbonate wells containing evaporated gold microelectrodes, and TER measurements were performed using an electrical cell-substrate impedance sensing system obtained from Applied Biophysics (Troy, N.Y.) as described (Garcia et al., 2001). TER values from each microelectrode were pooled at discrete time points and plotted versus time as the mean±S.E.

Human pulmonary EC [5] = experiment: TER, HABP2/C1INH regulation of EC barrier function (Examples 3 and 6); format: cell-based; details: purified C1INH; 1.0 μg/ml LPS, 100 nM HA, 10 μg/ml HABP2
Description: Measurement of transendothelial monolayer electrical resistance (TER). EC were grown to confluence in polycarbonate wells containing evaporated gold microelectrodes, and TER measurements performed using an electrical cell-substrate impedance sensing system obtained from Applied Biophysics (Troy, N.Y.) as previously described in detail (Garcia et al. 2001). TER values from each microelectrode were pooled at discrete time points and plotted versus time as the mean±S.E.
Determination of EC barrier function. Human pulmonary endothelial cells were grown to confluence in polycarbonate wells containing evaporated gold microelectrodes (surface area, 10-3 cm^2) in series with a large gold counter electrode (1 cm^2) connected to a phase-sensitive lock-in amplifier as described previously. Measurements of transendothelial electrical resistance (TER) were performed using an electrical cell-substrate impedance sensing system (ECIS) (Applied BioPhysics Inc.). Briefly, current was applied across the electrodes by a 4,000-Hz AC voltage source with amplitude of 1 V in series with a 1 MS/resistance to approximate a constant current source (˜1 μA). The in-phase and out-of-phase voltages between the electrodes were monitored in real time with the lock-in amplifier and subsequently converted to scalar measurements of transendothelial impedance, of which resistance was the primary focus. TER was monitored for 30 minutes to establish a baseline resistance (R0) which, for pulmonary endothelium, was typically between 8 to 12×10^3Ω (wells with R0<7×10^3Ω were rejected). As cells adhere and spread out on the microelectrode, TER increases (maximal at confluence), whereas cell retraction, rounding, or loss of adhesion was reflected by a decrease in TER. These measurements provide a highly sensitive biophysical assay that indicates the state of cell shape and focal adhesion. Values from each microelectrode were pooled at discrete time points and plotted versus time as the mean±SE of the mean (Garcia et al., 2001).

[6] = target: T1, HABP2, murine (mouse lung) (mouse, UniProt Q8K0D2 24-558, limits assumed); experiment: anti-HABP2 immunoprecipitation of mouse lung homogenates, non-reducing SDS-PAGE, immunoblot
T1 construct: Immunoprecipitated with anti-HABP2 antibody from mouse lung homogenates; also called murine HABP2
Description: FIG. 24 Analysis of HABP2 and C1INH expression and complex formation in murine lungs with or without LPS treatment and effective silencing of HABP2 expression in murine lungs. Panel A—Male B6129N2 mice (8-10 weeks) were anesthetized with intraperitoneal ketamine (150 mg/kg) and acetylpromazine (15 mg/kg) before exposure of the right internal jugular vein via neck incision. LPS (2.5 mg/kg) or water (control) were instilled […]. The animals were allowed to recover for 24 hours after LPS before lung extraction. Extracted lungs were homogenized, N=6 samples per condition were pooled, run on SDS-PAGE and immunoblotted with anti-HABP2 (1), anti-C1INH (2) or anti-actin (3) antibody. Panel B—Homogenized lung samples as described in Panel A were immunoprecipitated with anti-HABP2 antibody, run on non-reducing SDS-PAGE and immunoblotted with either anti-HABP2 or anti-C1INH antibody. The upper arrow indicates an SDS-stable complex between HABP2 and C1INH. The lower arrow indicates the free (active) faun of HABP2. Panel C—Male B6129N2 mice (8-10 weeks) were anesthetized with intraperitoneal ketamine (150 mg/kg) and acetylpromazine (15 mg/kg) before exposure of the right internal jugular vein via neck incision. 10 mg/kg in vivo stable scramble siRNA (control) or HABP2 siRNA (Dharmacon) were instilled intravenously through the internal jugular vein. […]

Tiam1 = target: T2, Tiam1 (human, UniProt Q13009 2-1591, limits assumed); experiment: immunoprecipitation of dynamin 2 from CEM fractions of human EC, immunoblot with anti-Tiam1
T2 construct: Endogenous protein in CEM fractions; also called T-lymphoma invasion and metastasis gene 1
Description: Immunoprecipitation and Immunoblotting—Cellular materials from treated or untreated HPMVEC were incubated with IP buffer (50 mM HEPES (pH 7.5), 150 mM NaCl, 20 mM MgCl₂, 1% Nonidet P-40 (NP-40), 0.4 mM Na₃VO₄, 40 mM NaF, 50 μM okadaic acid, 0.2 mM phenylmethylsulfonyl fluoride, 1:250 dilution of Calbiochem protease inhibitor mixture 3). Following immunoprecipitation with either anti-CD44 or anti-dynamin 2 IgG, the samples were subjected to SDS-PAGE in 4-15% polyacrylamide gels, transferred onto Immobilon™ membranes, and developed with specific primary and secondary antibodies. Enhanced chemiluminescence (Amersham Biosciences) was used to visualize immunoreactive bands. In some instances, standardized average grey values (S.A.G.V., processed from ImageQuant™ software (Amersham Biosciences)) were obtained for immunoreactive bands for quantification.
Role of Tiam1, cortactin and dynamin 2 in HGF/c-Met-mediated human EC barrier enhancement. Since CD44 appears to regulate HGF-induced EC barrier enhancement (FIG. 12), whether Tiam1, cortactin and/or dynamin 2 were involved in HGF-induced increases in EC barrier integrity was examined. […] Silencing CD44 (siRNA) expression attenuated the HGF-induced recruitment of these molecules to CEM (FIG. 13-B); silencing either Tiam1 or dynamin 2 expression abolished cortactin localization to CEM (FIG. 14-A and -B). […]

T2 sequence (Q13009 2-1591 limits assumed): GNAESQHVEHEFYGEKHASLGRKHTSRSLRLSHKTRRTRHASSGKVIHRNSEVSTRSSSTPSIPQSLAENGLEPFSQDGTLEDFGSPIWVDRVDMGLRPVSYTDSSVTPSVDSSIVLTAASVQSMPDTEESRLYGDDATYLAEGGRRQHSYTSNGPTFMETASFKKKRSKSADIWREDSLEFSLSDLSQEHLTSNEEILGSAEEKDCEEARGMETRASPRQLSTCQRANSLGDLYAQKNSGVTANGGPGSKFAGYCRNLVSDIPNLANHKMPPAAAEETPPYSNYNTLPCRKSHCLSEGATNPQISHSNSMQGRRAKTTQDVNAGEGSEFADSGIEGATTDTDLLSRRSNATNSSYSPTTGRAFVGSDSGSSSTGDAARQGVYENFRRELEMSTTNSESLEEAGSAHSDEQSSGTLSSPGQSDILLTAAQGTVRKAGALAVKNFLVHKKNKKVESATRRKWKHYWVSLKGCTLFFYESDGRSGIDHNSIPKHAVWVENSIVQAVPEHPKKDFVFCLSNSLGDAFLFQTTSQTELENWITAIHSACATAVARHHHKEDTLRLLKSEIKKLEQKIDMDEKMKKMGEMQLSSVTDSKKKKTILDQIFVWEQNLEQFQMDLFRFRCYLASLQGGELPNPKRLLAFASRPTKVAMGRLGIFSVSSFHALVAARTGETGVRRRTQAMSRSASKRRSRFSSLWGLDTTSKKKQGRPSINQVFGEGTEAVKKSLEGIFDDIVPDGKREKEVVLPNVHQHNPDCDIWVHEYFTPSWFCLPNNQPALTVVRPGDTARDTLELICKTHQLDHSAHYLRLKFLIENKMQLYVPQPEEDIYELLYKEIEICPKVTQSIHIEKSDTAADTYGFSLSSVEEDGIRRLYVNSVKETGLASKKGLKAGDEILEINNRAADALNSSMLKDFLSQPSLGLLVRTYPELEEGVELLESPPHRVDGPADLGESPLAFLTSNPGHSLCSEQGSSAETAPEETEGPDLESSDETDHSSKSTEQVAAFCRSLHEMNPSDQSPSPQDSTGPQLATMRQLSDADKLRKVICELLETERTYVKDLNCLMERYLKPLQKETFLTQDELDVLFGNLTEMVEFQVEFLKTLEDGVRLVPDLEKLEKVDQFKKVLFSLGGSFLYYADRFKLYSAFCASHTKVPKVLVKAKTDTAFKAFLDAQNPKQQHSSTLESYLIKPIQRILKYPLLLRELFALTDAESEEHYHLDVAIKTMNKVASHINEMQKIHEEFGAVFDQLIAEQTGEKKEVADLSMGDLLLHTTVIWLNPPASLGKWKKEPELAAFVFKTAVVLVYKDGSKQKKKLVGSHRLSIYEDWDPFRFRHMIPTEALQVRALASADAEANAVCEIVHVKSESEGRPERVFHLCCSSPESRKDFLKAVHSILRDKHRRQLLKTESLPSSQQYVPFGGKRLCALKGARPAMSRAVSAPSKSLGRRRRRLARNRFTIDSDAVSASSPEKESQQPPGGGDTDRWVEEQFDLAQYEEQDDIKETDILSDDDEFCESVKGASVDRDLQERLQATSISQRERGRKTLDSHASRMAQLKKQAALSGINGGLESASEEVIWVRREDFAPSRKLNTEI
T1 sequence (Q8K0D2 24-558 limits assumed): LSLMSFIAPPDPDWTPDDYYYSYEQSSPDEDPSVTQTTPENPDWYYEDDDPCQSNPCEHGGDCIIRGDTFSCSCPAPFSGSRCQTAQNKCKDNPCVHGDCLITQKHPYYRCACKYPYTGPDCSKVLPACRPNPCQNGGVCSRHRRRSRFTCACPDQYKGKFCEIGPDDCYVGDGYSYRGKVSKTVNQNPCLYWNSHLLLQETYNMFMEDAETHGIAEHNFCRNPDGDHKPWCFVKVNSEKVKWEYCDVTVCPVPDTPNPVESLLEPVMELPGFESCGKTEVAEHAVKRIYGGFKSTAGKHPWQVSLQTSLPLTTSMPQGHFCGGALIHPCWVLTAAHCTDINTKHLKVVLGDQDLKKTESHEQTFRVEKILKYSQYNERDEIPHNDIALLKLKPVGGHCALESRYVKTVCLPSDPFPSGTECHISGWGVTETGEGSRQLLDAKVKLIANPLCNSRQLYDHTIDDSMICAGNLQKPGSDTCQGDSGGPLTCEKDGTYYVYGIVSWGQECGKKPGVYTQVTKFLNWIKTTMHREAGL

methyl-β-cyclodextrin
inhibition of HA-induced changes in TER [1]: abolished both HMW- and LMW-HA-induced changes in TER
inhibition of HMW-HA induced cortical actin reorganization [2]: HMW-HA induced cortical actin reorganization was inhibited
inhibition of effects of HA on TER (Human pulmonary EC [3]): effects of HA on TER were inhibited
inhibition of HGF-induced Rac1 activation (Rac1): inhibited HGF-induced Rac1 activation
inhibition of HGF-induced increases in EC barrier function (TER) [4]: attenuated HGF-induced increases in human EC barrier function

B1: C1INH, murine (mouse lung) (other, UniProt P97290 23-504, looked up)
chain: DPEATSHSTQDPLEAQAKSRESFPERDDSWSPPEPTVLPSTWPTTSVAITITNDTMGKVANESFSQHSQPAAQLPTDSPGQPPLNSSSQPSTASDLPTQATTEPFCPEPLAQCSDSDRDSSEAKLSEALTDFSVKLYHAFSATKMAKTNMAFSPFSIASLLTQVLLGAGDSTKSNLESILSYPKDFACVHQALKGFSSKGVTSVSQIFHSPDLAIRDTYVNASQSLYGSSPRVLGPDSAANLELINTWVAENTNHKIRKLLDSLPSDTCLVLLNAVYLSAKWKITFEPKKMMAPFFYKNSMIKVPMMSSVKYPVAQFDDHTLKAKVGQLQLSHNLSFVIVVPVFPKHQLKDVEKALNPTVFKAIMKKLELSKFLPTYLTMPHIKVKSSQDMLSVMEKLEFFDFTYDLNLCGLTEDPDLQVSAMKHETVLELTESGVEAAAASAISFGRSLPIFEVQRPFLFLLWDQQHRFPVFMGRVYDPRG
notes: Detected with anti-C1INH antibody in anti-HABP2 immunoprecipitates of mouse lung homogenates
effect on EC barrier changes (TER) induced by LPS, LMW-HA, HABP2 and HMW-HA (Human pulmonary EC [5]): inhibited the EC barrier disrupting effects of LPS, LMW-HA and HABP2 while enhancing the barrier protective effects of HMW-HA
binding result [6]: binds

B2: dynamin 2 (other, human, UniProt P50570 1-870, looked up)
chain: MGNRGMEELIPLVNKLQDAFSSIGQSCHLDLPQIAVVGGQSAGKSSVLENFVGRDFLPRGSGIVTRRPLILQLIFSKTEHAEFLHCKSKKFTDFDEVRQEIEAETDRVTGTNKGISPVPINLRVYSPHVLNLTLIDLPGITKVPVGDQPPDIEYQIKDMILQFISRESSLILAVTPANMDLANSDALKLAKEVDPQGLRTIGVITKLDLMDEGTDARDVLENKLLPLRRGYIGVVNRSQKDIEGKKDIRAALAAERKFFLSHPAYRHMADRMGTPHLQKTLNQQLTNHIRESLPALRSKLQSQLLSLEKEVEEYKNFRPDDPTRKTKALLQMVQQFGVDFEKRIEGSGDQVDTLELSGGARINRIFHERFPFELVKMEFDEKDLRREISYAIKNIHGVRTGLFTPDLAFEAIVKKQVVKLKEPCLKCVDLVIQELINTVRQCTSKLSSYPRLREETERIVTTYIREREGRTKDQILLLIDIEQSYINTNHEDFIGFANAQQRSTQLNKKRAIPNQGEILVIRRGWLTINNISLMKGGSKEYWFVLTAESLSWYKDEEEKEKKYMLPLDNLKIRDVEKGFMSNKHVFAIFNTEQRNVYKDLRQIELACDSQEDVDSWKASFLRAGVYPEKDQAENEDGAQENTFSMDPQLERQVETIRNLVDSYVAIINKSIRDLMPKTIMHLMINNTKAFIHHELLAYLYSSADQSSLMEESADQAQRRDDMLRMYHALKEALNIIGDISTSTVSTPVPPPVDDTWLQSASSHSPTPQRRPVSSIHPPGRPPAVRGPTPGPPLIPVPVGAAASFSAPPIPSRPGPQSVFANSDLFPAPPQIPSRPVRIPPGIPPGVPSRRPPAAPSRPTIIRPAEPSLLD
notes: Immunoprecipitated with rabbit anti-dynamin 2 antibody from solubilized CEM fractions
binding result (Tiam1): no binding
